Columns and labels:
[1] = tested on: HB-2 and MDA-MB-231 human cell lines; test: Cell toxicity, two human cell lines HB-2 and MDA-MB-231; assay type: cell-based; conditions: 48 h, up to 100 μM
Experimental: FIG. 13 depicts that boronic acids show little cell toxicity. Compounds 1-5 as well as 3.9 and 3.10 were incubated for 48 h with two different human cell lines HB-2 and MDA-MB-231 at 7 concentrations up to 100 μM. Cell viability was measured after 48 h using Cell Titer Glo assay.
A seven-point, two-fold dose response series, with a 100 uM as the upper limit and a DMSO-only control point was generated using an Echo 550 liquid handler (Labcyte Inc.) in 384-well plates. Subsequently, the human breast cell lines MDA-MB-231 (tumorigenic) and HB2 (non-tumorigenic) were seeded (1000 cells/well) using a multi-drop Combi (Thermo Fisher Scientific) on top of the compounds. Plates were then incubated at 37° C. and 5% CO2 for 48 hours upon which cell viability was assessed by adding CellTiter-Glo® (Promega) to the reaction. The luminescence signal was measured on a Pherastar FS multi-mode plate reader (BMG Labtech).

[2] = tested on: Ostrinia nubilalis (European corn borer); test: CPE combined with boronic acid derivatives on corn leaves; assay type: in vivo; conditions: for Percentage of efficacy: boronic acid alone 0.2 mg/ml
Experimental: Treatments were performed by spraying a volume of mixture corresponding to 200 l/ha. 4 boxes/condition.
Drying 1 h at 20° C.; Deposit of three leaf fragments per box on water agar (4 box/condition); Infection of each leaf fragment with 4 Ostrinia nubilalis (12 larvae/box); Incubation 18° C./28° C. […] The percentage of mortality was calculated for each assessment times. Statistical analysis of the data was performed with XLSTAT® software (ANOVAs followed by Newman-Keuls tests with a threshold of 5%, see Table below).

Prolyl Oligopeptidase = biological target: T1, Prolyl Oligopeptidase (Homo sapiens, UniProt P48147); test: Protease selectivity panel; assay type: biochemical; conditions: 100 μM compound, n = 2
T1 construct: purchased R&D Systems
T1 sequence (P48147 1-710): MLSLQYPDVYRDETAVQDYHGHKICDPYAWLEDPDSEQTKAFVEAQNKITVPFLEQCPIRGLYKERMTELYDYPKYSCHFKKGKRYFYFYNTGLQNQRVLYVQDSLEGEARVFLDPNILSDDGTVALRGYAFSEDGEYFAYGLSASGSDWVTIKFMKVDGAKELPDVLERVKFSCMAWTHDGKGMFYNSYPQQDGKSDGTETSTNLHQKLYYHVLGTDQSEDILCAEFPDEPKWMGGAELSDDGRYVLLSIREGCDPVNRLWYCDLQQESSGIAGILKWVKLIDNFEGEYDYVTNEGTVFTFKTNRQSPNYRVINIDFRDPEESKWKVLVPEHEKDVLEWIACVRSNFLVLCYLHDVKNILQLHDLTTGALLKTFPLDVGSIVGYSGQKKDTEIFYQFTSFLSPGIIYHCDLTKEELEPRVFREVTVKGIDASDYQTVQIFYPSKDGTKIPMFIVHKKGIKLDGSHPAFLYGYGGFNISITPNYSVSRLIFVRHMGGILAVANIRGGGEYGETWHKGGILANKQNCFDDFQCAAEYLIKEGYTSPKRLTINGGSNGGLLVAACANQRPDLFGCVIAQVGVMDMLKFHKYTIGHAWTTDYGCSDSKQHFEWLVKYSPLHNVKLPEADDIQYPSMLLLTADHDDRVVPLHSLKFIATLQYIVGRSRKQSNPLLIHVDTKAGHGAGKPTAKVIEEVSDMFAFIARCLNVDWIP
Experimental: (§1) Test compounds were dissolved in 100% DMSO to make 10 mM stock. Final compound concentration in assay is […]. Compounds were tested in duplicate wells at single concentration and the final concentration of DMSO in all assays was kept at 1%. Five reference compounds, AEBSF, Carfilzomib, Granzyme B Inhibitor II, Dec-RVKR-CMK, and Teneligliptin hydrobromide, were tested in an identical manner with 8 concentration points at 5× dilutions.

PSMB5 = biological target: T2, PSMB5 (Homo sapiens, UniProt P28074); test: Protease selectivity panel; assay type: biochemical; conditions: 100 μM compound, n = 2
T2 construct: purchased BOSTON-BIOCHEM
Experimental: as §1

Furin = biological target: T3, Furin (Homo sapiens, UniProt P09958); test: Protease selectivity panel; assay type: biochemical; conditions: 100 μM compound, n = 2
T3 construct: purchased R&D Systems
Experimental: as §1

Spinesin = biological target: T4, Spinesin (Homo sapiens, UniProt Q9H3S3); test: Protease selectivity panel; assay type: biochemical; conditions: 100 μM compound, n = 2
T4 construct: purchased R&D Systems
Experimental: as §1

GranzymeK = biological target: T5, GranzymeK (Homo sapiens, UniProt P49863); test: Protease selectivity panel; assay type: biochemical; conditions: 100 μM compound, n = 2
T5 construct: purchased ENZO
T5 sequence (P49863 27-264): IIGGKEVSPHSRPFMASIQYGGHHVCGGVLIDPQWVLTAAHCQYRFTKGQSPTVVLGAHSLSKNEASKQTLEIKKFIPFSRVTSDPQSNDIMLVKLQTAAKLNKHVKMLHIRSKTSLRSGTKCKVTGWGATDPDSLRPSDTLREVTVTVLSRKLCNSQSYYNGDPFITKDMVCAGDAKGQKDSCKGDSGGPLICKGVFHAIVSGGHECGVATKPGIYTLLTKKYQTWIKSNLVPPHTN
Experimental: as §1

DPP4 = biological target: T6, DPP4 (Homo sapiens, UniProt P27487); test: Protease selectivity panel; assay type: biochemical; conditions: 100 μM compound, n = 2
T6 construct: purchased ENZO
Experimental: as §1

[3] = tested on: Myzus persicae (Green peach aphid); test: CPE combined with boronic acid derivatives on small broad bean leaves; assay type: in vivo
Experimental: […] The treatment was performed with an agricultural nozzle (300 L per hectare) […]. A non-treated control condition were also evaluated in parallel. Statistical analysis of the data was then performed. When the leaves were totally dry, 3 leaves were sampled and infested with 3 wingless adults of M. persicae per leaf fragment.
• T+1 (DAT 1)—One day later the number of adults remaining on the leaves was counted. • T+3 (DAT 3)—3 days after treatment the aphid population was estimated; • T+7 (DAT 7)—7 days after treatment the development of aphid population was estimated.
3 bean leaves fragments per microbox*4 microbox per condition (1 condition is 1 formulation at 1 dose)*9 adult aphids per microbox*4 insecticides (3 chlorpyrifos derivates+clorpyrifos alone)*4 rates+2 controls (1 reference insecticide formulation at one dose and non-treated)*3 assessments timings (DAT+1, DAT+3 and DAT+7).

T3 sequence (P09958 108-794): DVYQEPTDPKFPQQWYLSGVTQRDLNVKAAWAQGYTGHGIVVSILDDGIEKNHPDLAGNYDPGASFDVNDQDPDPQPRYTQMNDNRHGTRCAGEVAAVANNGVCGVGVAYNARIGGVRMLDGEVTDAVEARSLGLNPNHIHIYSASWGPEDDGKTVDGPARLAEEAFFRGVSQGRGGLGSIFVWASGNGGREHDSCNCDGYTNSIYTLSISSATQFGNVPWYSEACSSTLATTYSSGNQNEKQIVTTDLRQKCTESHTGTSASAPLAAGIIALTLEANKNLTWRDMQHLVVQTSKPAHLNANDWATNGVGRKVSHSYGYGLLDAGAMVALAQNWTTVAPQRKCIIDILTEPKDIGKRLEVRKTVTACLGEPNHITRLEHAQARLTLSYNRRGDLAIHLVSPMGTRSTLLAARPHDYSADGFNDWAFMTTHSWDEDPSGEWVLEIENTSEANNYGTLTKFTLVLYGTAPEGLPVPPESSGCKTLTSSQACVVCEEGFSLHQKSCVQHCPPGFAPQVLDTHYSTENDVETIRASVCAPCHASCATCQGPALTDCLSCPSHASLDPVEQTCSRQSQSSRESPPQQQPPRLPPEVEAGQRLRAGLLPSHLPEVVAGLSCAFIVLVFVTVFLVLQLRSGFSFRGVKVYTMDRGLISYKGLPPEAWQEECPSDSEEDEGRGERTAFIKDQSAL
T4 sequence (Q9H3S3 218-457 limits assumed): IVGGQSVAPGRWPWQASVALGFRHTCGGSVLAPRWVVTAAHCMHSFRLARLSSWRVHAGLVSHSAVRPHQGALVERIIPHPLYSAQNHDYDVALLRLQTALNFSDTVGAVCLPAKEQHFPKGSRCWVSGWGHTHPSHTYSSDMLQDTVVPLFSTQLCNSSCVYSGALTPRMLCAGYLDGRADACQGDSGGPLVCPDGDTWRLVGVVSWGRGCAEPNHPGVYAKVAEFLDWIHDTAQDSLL
T6 sequence (P27487 whole entry): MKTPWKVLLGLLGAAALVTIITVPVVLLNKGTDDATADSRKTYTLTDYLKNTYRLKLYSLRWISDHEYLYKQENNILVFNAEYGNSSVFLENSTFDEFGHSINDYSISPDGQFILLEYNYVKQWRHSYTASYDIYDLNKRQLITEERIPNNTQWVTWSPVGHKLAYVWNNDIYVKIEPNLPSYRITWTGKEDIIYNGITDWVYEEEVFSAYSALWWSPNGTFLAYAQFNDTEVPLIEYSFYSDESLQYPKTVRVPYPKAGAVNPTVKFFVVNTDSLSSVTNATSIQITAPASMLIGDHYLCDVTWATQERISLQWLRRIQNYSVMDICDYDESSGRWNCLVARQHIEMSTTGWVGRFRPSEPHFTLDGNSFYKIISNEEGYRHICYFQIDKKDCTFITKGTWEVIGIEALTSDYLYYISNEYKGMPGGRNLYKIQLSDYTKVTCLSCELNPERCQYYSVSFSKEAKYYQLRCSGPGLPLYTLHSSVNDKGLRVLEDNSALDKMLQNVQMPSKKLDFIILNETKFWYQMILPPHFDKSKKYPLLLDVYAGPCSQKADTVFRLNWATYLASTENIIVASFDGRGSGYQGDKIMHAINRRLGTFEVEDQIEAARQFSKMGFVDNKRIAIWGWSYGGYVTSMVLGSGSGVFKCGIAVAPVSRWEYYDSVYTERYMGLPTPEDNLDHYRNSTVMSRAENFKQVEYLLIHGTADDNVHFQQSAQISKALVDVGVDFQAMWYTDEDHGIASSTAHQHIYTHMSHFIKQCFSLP

OB(O)c1cc(Br)cc(Oc2ccccc2)c1 [Compound 3.10, 3-Bromo-5-phenoxyfenylboronic acid]
cellular toxicity [1]: do not exhibit any cellular toxicity up to 100 μM
toxicity of the boronic acid derivative alone (in words) ([2]; 0.2 mg/ml, some larvae death with 3.10 and 3.7 at 6 DAT): Absence of significant toxicity
efficacy on addition of the compound compared with CPE used alone (in words) ([2]; 1 DAT and 3 DAT at the dose of 15.6 g a.i./ha): increased significantly the efficacy
Percentage of efficacy ([2]; 1 DAT): 0%
Percentage of efficacy ([2]; 3 DAT): 0%
Percentage of efficacy ([2]; 6 DAT): 22%
inhibition at 100 µM (Prolyl Oligopeptidase): 30%
inhibition at 100 µM (PSMB5): 2%
inhibition at 100 µM (Furin): -5%
inhibition at 100 µM (Spinesin): 34%
inhibition at 100 µM (GranzymeK): 3%
inhibition at 100 µM (DPP4): -3%
toxicity of the boronic acid derivative alone (in words) ([3]; ANOVAs followed by Newman-Keuls tests, threshold 5%): No significant toxicity
insecticidal efficacy of CPE on addition of the compound (in words) ([3]; CPE at 2.8 g a.i./ha and 5.6 g a.i./ha): increased
